The target of test [1] is Calcium/calmodulin-dependent protein kinase type II subunit gamma (Homo sapiens) (UniProt Q13555). As to conditions: at 10 µM.
Test [2] concerns the target Hepatocyte growth factor receptor (Homo sapiens, UniProt P08581). As to conditions: at 10 µM.
In test [3] the target is T1, Ephrin type-A receptor 1 (Homo sapiens) (UniProt P21709).
T1 sequence (whole entry): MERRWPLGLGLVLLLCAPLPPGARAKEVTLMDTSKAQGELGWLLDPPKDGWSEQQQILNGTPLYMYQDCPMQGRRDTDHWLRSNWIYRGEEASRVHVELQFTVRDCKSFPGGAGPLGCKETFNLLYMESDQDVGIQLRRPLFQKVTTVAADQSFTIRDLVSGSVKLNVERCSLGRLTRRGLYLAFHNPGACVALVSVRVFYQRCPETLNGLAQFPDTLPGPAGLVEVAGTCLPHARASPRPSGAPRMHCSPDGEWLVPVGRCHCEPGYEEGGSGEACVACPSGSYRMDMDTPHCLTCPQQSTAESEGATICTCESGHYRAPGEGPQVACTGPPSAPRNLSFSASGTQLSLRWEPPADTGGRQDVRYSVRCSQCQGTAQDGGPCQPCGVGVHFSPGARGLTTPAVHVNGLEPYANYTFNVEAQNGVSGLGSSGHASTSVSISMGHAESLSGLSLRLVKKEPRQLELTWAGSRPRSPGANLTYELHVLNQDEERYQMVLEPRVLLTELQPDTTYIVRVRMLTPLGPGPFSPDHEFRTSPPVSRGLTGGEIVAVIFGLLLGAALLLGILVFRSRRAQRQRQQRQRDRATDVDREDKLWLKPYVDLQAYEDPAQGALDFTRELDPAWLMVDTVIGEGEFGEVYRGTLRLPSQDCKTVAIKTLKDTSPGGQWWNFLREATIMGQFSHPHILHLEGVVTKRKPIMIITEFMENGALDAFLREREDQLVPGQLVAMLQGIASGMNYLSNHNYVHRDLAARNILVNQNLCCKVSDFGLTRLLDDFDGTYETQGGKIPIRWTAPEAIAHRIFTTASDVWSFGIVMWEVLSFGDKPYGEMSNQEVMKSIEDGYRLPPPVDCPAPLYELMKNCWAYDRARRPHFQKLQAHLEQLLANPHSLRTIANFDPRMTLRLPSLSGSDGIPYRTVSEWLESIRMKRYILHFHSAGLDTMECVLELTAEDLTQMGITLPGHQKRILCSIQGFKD
The test can be described thus: Selectivity interaction (KinomeScan (DiscoverX)) EUB0001049a EPHA1. To be noted: at 1 µM.

A further test concerns the target Focal adhesion kinase 1 (Homo sapiens, UniProt Q05397). Description: Selectivity interaction (KinomeScan (DiscoverX)) EUB0000695a PTK2. To be noted: at 100 nM.
The target of test [4] is Calcium/calmodulin-dependent protein kinase type II subunit alpha (Homo sapiens, UniProt Q9UQM7). The test can be described thus: Selectivity interaction (Kinase panel (Z-LYTE Assay)) EUB0001632a CAMK2A. To be noted: at 10 µM.
The target of test [5] is Myosin light chain kinase 2, skeletal/cardiac muscle (Homo sapiens) (UniProt Q9H1R3). Description: Selectivity interaction (KinomeScan (DiscoverX)) EUB0000607a MYLK2. As to conditions: at 10 µM.
Test [6] addresses Tyrosine-protein kinase SYK (Homo sapiens, UniProt P43405). The test can be described thus: Selectivity interaction (ActivX KiNativ screen (kinase selectivity in THP-1 cell lysates)) EUB0000639a SYK. Type of test: subcellular. To be noted: lysate, at 0.04 µM.
Test [7] has as its target T2, Serine/threonine-protein kinase TBK1 (Homo sapiens) (UniProt Q9UHD2).
T2 sequence (whole entry): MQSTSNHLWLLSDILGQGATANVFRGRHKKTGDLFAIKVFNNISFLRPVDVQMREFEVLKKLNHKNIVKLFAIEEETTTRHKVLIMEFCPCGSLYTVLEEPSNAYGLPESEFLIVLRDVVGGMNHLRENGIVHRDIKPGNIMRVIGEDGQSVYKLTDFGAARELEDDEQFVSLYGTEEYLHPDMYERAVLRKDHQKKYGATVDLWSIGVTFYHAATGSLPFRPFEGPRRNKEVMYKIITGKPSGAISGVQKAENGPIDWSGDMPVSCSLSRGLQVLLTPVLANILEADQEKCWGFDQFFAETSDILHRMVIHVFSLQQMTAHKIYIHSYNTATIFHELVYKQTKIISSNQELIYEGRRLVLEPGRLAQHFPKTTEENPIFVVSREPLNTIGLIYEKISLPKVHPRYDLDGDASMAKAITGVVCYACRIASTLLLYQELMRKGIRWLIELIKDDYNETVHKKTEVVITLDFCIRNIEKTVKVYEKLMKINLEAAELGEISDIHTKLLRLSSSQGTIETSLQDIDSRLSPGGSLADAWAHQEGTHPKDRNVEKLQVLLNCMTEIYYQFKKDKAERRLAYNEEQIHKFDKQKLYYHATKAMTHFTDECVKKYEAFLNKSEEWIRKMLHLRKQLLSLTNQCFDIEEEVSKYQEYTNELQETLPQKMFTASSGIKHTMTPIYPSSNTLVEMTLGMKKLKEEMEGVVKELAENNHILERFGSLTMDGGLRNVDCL
Description: Selectivity interaction (ActivX KiNativ screen (kinase selectivity in THP-1 cell lysates)) EUB0000639a TBK1. It is filed as subcellular. As to conditions: lysate, at 0.04 µM.

Test [8] has as its target Microtubule-associated serine/threonine-protein kinase 1 (Homo sapiens) (UniProt Q9Y2H9). The test can be described thus: Selectivity interaction (KinomeScan (DiscoverX)) EUB0000229b MAST1. To be noted: at 10 µM.
In test [9] the target is T3, Serine/threonine-protein kinase Sgk3 (Homo sapiens) (UniProt Q96BR1).
T3 sequence (whole entry): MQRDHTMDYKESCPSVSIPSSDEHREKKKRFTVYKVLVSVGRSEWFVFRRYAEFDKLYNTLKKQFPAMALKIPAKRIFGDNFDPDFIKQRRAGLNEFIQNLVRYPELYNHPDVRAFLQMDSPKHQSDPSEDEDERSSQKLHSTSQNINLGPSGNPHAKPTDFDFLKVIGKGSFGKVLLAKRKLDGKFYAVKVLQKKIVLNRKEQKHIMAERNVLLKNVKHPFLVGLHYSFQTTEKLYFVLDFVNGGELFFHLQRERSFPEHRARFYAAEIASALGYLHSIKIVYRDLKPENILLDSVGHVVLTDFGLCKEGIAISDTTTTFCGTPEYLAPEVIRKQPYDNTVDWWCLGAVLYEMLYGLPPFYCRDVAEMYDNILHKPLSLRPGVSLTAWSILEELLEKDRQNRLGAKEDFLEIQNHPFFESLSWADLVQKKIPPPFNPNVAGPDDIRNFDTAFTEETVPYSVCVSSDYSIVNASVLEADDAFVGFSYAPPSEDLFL
The test can be described thus: Selectivity interaction (Kinase panel (KiNativ target engagement assay in Jurkat cells)) EUB0001635a SGK3. Type of test: cell-based. As to conditions: at 1 µM.

The target of test [10] is Ribosomal protein S6 kinase alpha-4 (Homo sapiens) (UniProt O75676). Description: Selectivity interaction (KinomeScan (DiscoverX)) EUB0000618a RPS6KA4. As to conditions: at 10 µM.

Calcium/calmodulin-dependent protein kinase type II subunit gamma (Homo sapiens), sequence (Q13555 whole entry): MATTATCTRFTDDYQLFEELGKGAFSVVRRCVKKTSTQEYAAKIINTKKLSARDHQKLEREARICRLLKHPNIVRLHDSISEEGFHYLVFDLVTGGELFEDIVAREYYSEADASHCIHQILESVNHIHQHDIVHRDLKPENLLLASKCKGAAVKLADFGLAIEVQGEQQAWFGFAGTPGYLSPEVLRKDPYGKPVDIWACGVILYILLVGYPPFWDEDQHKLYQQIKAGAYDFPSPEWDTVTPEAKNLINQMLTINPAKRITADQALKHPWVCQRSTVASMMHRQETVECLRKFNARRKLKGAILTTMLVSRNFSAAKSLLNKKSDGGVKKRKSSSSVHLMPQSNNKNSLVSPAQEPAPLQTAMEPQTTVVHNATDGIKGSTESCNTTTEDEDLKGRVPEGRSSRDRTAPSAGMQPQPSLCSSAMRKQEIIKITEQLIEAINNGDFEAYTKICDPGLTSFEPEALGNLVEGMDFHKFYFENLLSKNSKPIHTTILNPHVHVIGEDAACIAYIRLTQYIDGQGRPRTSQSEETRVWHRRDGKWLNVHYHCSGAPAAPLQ
Myosin light chain kinase 2, skeletal/cardiac muscle (Homo sapiens), sequence (Q9H1R3 whole entry): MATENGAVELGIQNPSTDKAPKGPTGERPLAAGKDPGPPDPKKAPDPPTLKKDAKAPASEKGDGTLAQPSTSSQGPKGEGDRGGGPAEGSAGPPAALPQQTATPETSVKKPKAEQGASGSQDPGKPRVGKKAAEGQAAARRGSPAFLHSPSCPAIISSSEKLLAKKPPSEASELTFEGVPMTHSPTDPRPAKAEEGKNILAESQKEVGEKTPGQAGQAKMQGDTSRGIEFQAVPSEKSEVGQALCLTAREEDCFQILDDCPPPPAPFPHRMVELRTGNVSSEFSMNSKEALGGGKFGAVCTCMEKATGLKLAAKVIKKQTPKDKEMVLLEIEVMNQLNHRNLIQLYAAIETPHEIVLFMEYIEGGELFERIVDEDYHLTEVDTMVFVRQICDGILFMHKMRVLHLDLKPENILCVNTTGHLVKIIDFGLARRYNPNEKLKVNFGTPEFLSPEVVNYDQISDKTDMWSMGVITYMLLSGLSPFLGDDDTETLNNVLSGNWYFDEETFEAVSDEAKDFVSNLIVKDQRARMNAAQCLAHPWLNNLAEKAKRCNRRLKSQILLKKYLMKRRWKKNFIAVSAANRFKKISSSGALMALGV
Hepatocyte growth factor receptor, sequence (P08581 whole entry): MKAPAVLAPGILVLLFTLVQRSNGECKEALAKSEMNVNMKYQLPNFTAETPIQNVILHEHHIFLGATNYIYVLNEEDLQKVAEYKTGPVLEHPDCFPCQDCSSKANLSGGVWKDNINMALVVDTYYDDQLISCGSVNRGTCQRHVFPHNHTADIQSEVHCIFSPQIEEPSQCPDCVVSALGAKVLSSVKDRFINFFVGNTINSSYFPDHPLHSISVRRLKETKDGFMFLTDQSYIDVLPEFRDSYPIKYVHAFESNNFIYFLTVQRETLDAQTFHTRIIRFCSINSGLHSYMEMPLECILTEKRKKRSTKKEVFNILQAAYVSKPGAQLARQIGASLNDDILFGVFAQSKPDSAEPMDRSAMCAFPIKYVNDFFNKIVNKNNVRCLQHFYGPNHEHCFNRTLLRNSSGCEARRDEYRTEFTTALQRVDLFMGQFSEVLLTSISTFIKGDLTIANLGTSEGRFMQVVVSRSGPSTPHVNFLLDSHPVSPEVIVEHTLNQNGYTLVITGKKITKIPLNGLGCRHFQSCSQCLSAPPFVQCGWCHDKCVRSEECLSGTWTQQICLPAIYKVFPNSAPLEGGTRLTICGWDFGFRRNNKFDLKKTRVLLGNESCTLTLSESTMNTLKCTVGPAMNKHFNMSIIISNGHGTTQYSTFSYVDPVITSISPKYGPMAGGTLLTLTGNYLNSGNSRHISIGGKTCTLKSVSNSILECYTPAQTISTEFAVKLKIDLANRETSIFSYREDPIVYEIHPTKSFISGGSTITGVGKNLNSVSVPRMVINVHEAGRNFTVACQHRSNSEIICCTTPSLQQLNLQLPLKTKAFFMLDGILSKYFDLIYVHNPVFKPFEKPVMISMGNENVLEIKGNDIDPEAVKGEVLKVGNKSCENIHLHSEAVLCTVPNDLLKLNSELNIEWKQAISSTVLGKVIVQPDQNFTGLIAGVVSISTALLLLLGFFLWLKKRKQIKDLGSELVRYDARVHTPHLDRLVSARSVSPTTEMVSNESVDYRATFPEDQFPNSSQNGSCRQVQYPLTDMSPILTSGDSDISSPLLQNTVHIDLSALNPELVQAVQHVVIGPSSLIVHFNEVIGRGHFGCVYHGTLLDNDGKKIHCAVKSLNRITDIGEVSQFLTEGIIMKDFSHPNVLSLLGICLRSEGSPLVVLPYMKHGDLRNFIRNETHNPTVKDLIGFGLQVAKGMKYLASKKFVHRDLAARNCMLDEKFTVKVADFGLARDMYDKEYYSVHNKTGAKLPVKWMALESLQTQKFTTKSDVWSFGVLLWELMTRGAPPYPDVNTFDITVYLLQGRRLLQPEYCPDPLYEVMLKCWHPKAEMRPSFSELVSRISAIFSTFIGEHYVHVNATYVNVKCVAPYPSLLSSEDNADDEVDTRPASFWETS
Microtubule-associated serine/threonine-protein kinase 1 (Homo sapiens), sequence (Q9Y2H9 whole entry, looked up): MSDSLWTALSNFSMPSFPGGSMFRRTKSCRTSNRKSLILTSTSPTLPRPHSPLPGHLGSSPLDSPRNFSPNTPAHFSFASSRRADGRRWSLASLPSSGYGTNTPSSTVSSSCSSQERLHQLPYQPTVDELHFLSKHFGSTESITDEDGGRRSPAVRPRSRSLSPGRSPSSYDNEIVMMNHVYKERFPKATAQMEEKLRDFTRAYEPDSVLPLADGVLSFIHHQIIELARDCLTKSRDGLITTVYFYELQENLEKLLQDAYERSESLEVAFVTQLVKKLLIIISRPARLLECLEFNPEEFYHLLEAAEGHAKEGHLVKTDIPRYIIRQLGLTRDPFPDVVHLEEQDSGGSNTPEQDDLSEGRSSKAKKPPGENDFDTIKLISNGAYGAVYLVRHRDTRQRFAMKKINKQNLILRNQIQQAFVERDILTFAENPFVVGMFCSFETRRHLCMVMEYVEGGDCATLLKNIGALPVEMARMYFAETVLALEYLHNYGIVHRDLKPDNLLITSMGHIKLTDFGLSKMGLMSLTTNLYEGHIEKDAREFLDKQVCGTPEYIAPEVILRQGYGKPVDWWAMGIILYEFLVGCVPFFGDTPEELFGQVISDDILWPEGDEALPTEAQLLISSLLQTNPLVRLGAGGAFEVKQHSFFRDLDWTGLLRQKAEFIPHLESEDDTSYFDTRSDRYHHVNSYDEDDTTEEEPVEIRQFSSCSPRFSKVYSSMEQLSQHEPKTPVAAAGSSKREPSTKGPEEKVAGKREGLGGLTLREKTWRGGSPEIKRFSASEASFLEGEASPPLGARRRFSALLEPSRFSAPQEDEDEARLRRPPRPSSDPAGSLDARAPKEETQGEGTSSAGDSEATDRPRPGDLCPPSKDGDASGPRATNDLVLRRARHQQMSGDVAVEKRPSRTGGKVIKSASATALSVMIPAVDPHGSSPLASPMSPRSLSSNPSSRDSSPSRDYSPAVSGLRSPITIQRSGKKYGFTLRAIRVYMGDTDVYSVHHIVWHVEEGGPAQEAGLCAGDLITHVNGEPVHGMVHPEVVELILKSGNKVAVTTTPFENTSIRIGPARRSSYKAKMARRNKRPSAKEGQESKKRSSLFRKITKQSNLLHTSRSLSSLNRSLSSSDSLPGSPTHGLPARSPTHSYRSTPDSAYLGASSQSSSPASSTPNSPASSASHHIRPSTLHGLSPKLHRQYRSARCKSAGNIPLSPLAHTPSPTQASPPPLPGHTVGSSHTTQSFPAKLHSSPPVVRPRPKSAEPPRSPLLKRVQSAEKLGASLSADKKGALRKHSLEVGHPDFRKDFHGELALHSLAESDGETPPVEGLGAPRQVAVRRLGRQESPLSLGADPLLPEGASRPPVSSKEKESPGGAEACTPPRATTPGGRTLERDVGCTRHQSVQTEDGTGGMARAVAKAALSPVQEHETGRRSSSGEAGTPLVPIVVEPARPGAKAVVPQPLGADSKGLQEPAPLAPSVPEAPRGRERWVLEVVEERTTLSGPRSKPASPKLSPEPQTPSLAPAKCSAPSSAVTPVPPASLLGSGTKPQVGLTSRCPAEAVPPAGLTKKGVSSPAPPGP
Calcium/calmodulin-dependent protein kinase type II subunit alpha, sequence (Q9UQM7 whole entry): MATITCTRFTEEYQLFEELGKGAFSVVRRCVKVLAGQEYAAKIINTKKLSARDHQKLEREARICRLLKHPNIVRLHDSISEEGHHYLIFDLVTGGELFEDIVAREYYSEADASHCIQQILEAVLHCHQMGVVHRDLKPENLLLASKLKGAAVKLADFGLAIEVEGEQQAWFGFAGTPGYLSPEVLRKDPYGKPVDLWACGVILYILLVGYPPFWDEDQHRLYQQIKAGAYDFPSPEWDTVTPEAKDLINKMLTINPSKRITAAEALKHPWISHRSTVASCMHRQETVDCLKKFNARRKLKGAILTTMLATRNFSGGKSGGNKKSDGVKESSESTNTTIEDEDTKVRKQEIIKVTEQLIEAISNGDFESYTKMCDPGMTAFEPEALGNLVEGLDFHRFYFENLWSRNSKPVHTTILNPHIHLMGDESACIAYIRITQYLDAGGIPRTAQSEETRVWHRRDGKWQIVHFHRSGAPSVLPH

As for `Cc1cc([C@@H](C)Nc2ccccc2C(=O)O)c2nc(N3CCOCC3)cc(=O)n2c1` [AZD-6482], the % of control in [1] was 98%; in test [2], 86%.
On to `COc1cc(Nc2nc(C)cc(-c3cnn4nc(OC)ccc34)n2)cc(C(F)(F)F)c1`, for which the % of control in test [3] was found to be 93%.
Take `Cc1cc(F)c(C(=O)Nc2cccc(-c3nncn3C(C)C)n2)cc1-n1cnc(C2CC2)c1`: at Focal adhesion kinase 1, the % of control came to 100%.
`Cn1cc(-n2cnc3c(NCc4nc5cc(Cl)c(Cl)cc5[nH]4)nc(N4CCOCC4)nc32)cn1`: the % of control in test [4] is -0.947%.
As to `CNC(=O)Nc1ccc(-c2nc(N3CC4CCC(C3)O4)c3cnn(C4CCC5(CC4)OCCO5)c3n2)cc1`, the % of control in [5] amounted to 100%.
Regarding `CC[C@@H]1[C@H](F)C(=O)N[C@@H]1COc1nccc2cc(C(N)=O)c(OC)cc12` [ZIMLOVISERTIB], the values for the % of inhibition in test [6] and in test [7] were 5.5% and -7.8%, respectively.
As to `COc1cc(N(C)c2ccnc3ccc(C(F)(F)F)cc23)cc(OC)c1OC`, the % binding in test [8] was found to be 85%.
For the molecule `C=CC(=O)Nc1ccc(C(=O)Nc2[nH]nc3c2CN(C(=O)N[C@H](CN(C)C)c2ccccc2)C3(C)C)cc1`, the % of engagement stood at 15.8% in [9] (Selectivity number of off-targets 0.0, Selectivity number of targets 233.0, Source Knowledge https://www.sciencedirect.com/science/article/pii/S2451945619300674?via%3Dihub) and 6.4% in [9].
As to `O[C@H]1CC[C@H](Nc2ncc3nc(Nc4c(F)cc(F)cc4F)n([C@H]4CCOC4)c3n2)CC1`, the % of control in test [10] turned out to be 100%.

These data come from ChEMBL document CHEMBL5465560, “Selectivity Literature for EUbOPEN Chemogenomic Library” (2024).
